Data reported in PubChem BioAssay AID1259407 (Chemical Carcinogenesis Research Information System (CCRIS), 2018).
Active and inactive are the calls of the source. The rule behind the calls is not given here.

Test system: CCRIS mutagenicity, Ames/micronucleus/aberration tests
Assay: CCRIS mutagenicity studies
[1] = Test System: AMES SALMONELLA TYPHIMURIUM, Strain/Indicator: TA98, Metabolic Activation: NONE, Method: STANDARD PLATE
[2] = Test System: AMES SALMONELLA TYPHIMURIUM, Strain/Indicator: TA98, Metabolic Activation: RAT, LIVER, S-9, AROCLOR 1254, Method: STANDARD PLATE
[3] = Test System: AMES SALMONELLA TYPHIMURIUM, Strain/Indicator: TA100, Metabolic Activation: NONE, Method: STANDARD PLATE
[4] = Test System: AMES SALMONELLA TYPHIMURIUM, Strain/Indicator: TA98, Metabolic Activation: NONE, Method: PREINCUBATION

SMILES: O=C([O-])c1cc(N=Nc2ccc(-c3ccc(N/N=c4/c(=O)cc/c(=N\Nc5cc(S(=O)(=O)[O-])ccc5[O-])c4=O)cc3)cc2)ccc1[O-].[Cu+2].[Na+].[Na+]
- mutagenic call (End Point: IN VITRO CHROMOSOMAL ABERRATIONS, Test System: CHINESE HAMSTER OVARY CELLS, Metabolic Activation: NONE): inactive; negative
- mutagenic call (End Point: IN VITRO CHROMOSOMAL ABERRATIONS, Test System: CHINESE HAMSTER OVARY CELLS, Metabolic Activation: RAT, LIVER, S-9, AROCLOR 1254): inactive; negative
- mutagenic call (Test System: AMES SALMONELLA TYPHIMURIUM, Strain/Indicator: TA98, Metabolic Activation: HAMSTER, LIVER, S-9, Method: PREINCUBATION (PRIVAL METHOD)): active; positive
- mutagenic call [1]: inactive; negative
- mutagenic call [2]: inactive; negative
- mutagenic call [3]: inactive; negative
- mutagenic call (Test System: AMES SALMONELLA TYPHIMURIUM, Strain/Indicator: TA100, Metabolic Activation: RAT, LIVER, S-9, AROCLOR 1254, Method: STANDARD PLATE): inactive; negative
- mutagenic call (Test System: AMES SALMONELLA TYPHIMURIUM, Strain/Indicator: TA1535, Metabolic Activation: NONE, Method: STANDARD PLATE): inactive; negative
- mutagenic call (Test System: AMES SALMONELLA TYPHIMURIUM, Strain/Indicator: TA1535, Metabolic Activation: RAT, LIVER, S-9, AROCLOR 1254, Method: STANDARD PLATE): inactive; negative
- mutagenic call (Test System: AMES SALMONELLA TYPHIMURIUM, Strain/Indicator: TA1537, Metabolic Activation: NONE, Method: STANDARD PLATE): inactive; negative
- mutagenic call (Test System: AMES SALMONELLA TYPHIMURIUM, Strain/Indicator: TA1537, Metabolic Activation: RAT, LIVER, S-9, AROCLOR 1254, Method: STANDARD PLATE): inactive; negative
- mutagenic call (Test System: AMES SALMONELLA TYPHIMURIUM, Strain/Indicator: TA1538, Metabolic Activation: NONE, Method: STANDARD PLATE): inactive; negative
- mutagenic call (Test System: AMES SALMONELLA TYPHIMURIUM, Strain/Indicator: TA1538, Metabolic Activation: RAT, LIVER, S-9, AROCLOR 1254, Method: STANDARD PLATE): inactive; negative

SMILES: CCN(C(C)=O)c1ccc2c(c1)Cc1ccccc1-2
- mutagenic call [2]: active; positive

SMILES: O[C@@H]1[C@@H]2O[C@@H]2c2c(ccc3nc4ccc5ccccc5c4cc23)[C@H]1O
- mutagenic call [1]: active; positive
- mutagenic call (Test System: AMES SALMONELLA TYPHIMURIUM, Strain/Indicator: TA100, Metabolic Activation: GUINEA PIG, LIVER, S-9, 3-METHYLCHOLANTHRENE, Method: STANDARD PLATE): active; positive
- mutagenic call [3]: active; positive
- mutagenic call (Test System: CHINESE HAMSTER V-79, Strain/Indicator: V-79/6-THIOGUANINE, Metabolic Activation: NONE): active; positive

SMILES: CN1CSC(=S)N(C)C1
- mutagenic call (End Point: In vivo micronucleus, Test System: Micronucleated polychromatic erythrocytes, Species: Mouse, Strain/Sex: NMRI / Males and females, Route: Oral): inactive; negative

SMILES: Nc1ccccc1Cl
- mutagenic call (Test System: AMES SALMONELLA TYPHIMURIUM, Strain/Indicator: TA97, Metabolic Activation: HAMSTER, LIVER, S-9, AROCLOR 1254 (10%), Method: PREINCUBATION): inactive; negative
- mutagenic call (Test System: AMES SALMONELLA TYPHIMURIUM, Strain/Indicator: TA97, Metabolic Activation: HAMSTER, LIVER, S-9, AROCLOR 1254 (30%), Method: PREINCUBATION): inactive; negative
- mutagenic call (Test System: AMES SALMONELLA TYPHIMURIUM, Strain/Indicator: TA97, Metabolic Activation: NONE, Method: PREINCUBATION): inactive; negative
- mutagenic call (Test System: AMES SALMONELLA TYPHIMURIUM, Strain/Indicator: TA97, Metabolic Activation: RAT, LIVER, S-9, AROCLOR 1254 (10%), Method: PREINCUBATION): inactive; negative
- mutagenic call (Test System: AMES SALMONELLA TYPHIMURIUM, Strain/Indicator: TA97, Metabolic Activation: RAT, LIVER, S-9, AROCLOR 1254 (30%), Method: PREINCUBATION): inactive; negative
- mutagenic call (Test System: AMES SALMONELLA TYPHIMURIUM, Strain/Indicator: TA98, Metabolic Activation: HAMSTER, LIVER, S-9, AROCLOR 1254 (10%), Method: PREINCUBATION): inactive; negative
- mutagenic call (Test System: AMES SALMONELLA TYPHIMURIUM, Strain/Indicator: TA98, Metabolic Activation: HAMSTER, LIVER, S-9, AROCLOR 1254 (30%), Method: PREINCUBATION): inactive; negative
- mutagenic call [4]: inactive; negative
- mutagenic call (Test System: AMES SALMONELLA TYPHIMURIUM, Strain/Indicator: TA98, Metabolic Activation: RAT, LIVER, S-9, AROCLOR 1254 (10%), Method: PREINCUBATION): inactive; negative
- mutagenic call (Test System: AMES SALMONELLA TYPHIMURIUM, Strain/Indicator: TA98, Metabolic Activation: RAT, LIVER, S-9, AROCLOR 1254 (30%), Method: PREINCUBATION): inactive; negative
- mutagenic call (Test System: AMES SALMONELLA TYPHIMURIUM, Strain/Indicator: TA100, Metabolic Activation: HAMSTER, LIVER, S-9, AROCLOR 1254 (10%), Method: PREINCUBATION): inactive; negative
- mutagenic call (Test System: AMES SALMONELLA TYPHIMURIUM, Strain/Indicator: TA100, Metabolic Activation: HAMSTER, LIVER, S-9, AROCLOR 1254 (30%), Method: PREINCUBATION): inactive; negative
- mutagenic call (Test System: AMES SALMONELLA TYPHIMURIUM, Strain/Indicator: TA100, Metabolic Activation: NONE, Method: PREINCUBATION): inactive; negative
- mutagenic call (Test System: AMES SALMONELLA TYPHIMURIUM, Strain/Indicator: TA100, Metabolic Activation: RAT, LIVER, S-9, AROCLOR 1254 (10%), Method: PREINCUBATION): inactive; negative
- mutagenic call (Test System: AMES SALMONELLA TYPHIMURIUM, Strain/Indicator: TA100, Metabolic Activation: RAT, LIVER, S-9, AROCLOR 1254 (30%), Method: PREINCUBATION): inactive; negative
- mutagenic call (Test System: AMES SALMONELLA TYPHIMURIUM, Strain/Indicator: TA1535, Metabolic Activation: HAMSTER, LIVER, S-9, AROCLOR 1254 (10%), Method: PREINCUBATION): inactive; negative
- mutagenic call (Test System: AMES SALMONELLA TYPHIMURIUM, Strain/Indicator: TA1535, Metabolic Activation: HAMSTER, LIVER, S-9, AROCLOR 1254 (30%), Method: PREINCUBATION): inactive; negative
- mutagenic call (Test System: AMES SALMONELLA TYPHIMURIUM, Strain/Indicator: TA1535, Metabolic Activation: NONE, Method: PREINCUBATION): inactive; negative
- mutagenic call (Test System: AMES SALMONELLA TYPHIMURIUM, Strain/Indicator: TA1535, Metabolic Activation: RAT, LIVER, S-9, AROCLOR 1254 (10%), Method: PREINCUBATION): inactive; negative
- mutagenic call (Test System: AMES SALMONELLA TYPHIMURIUM, Strain/Indicator: TA1535, Metabolic Activation: RAT, LIVER, S-9, AROCLOR 1254 (30%), Method: PREINCUBATION): inactive; negative
- mutagenic call (Test System: CHINESE HAMSTER V-79, Strain/Indicator: V-79/8-AZAGUANINE, Metabolic Activation: NONE, Method: SUSPENSION/PLATE): active; positive
- mutagenic call (Test System: CHINESE HAMSTER V-79, Strain/Indicator: V-79/OUABAIN, Metabolic Activation: NONE, Method: SUSPENSION/PLATE): inactive; negative
- mutagenic call (Test System: MOUSE LYMPHOMA, Strain/Indicator: L5178Y (TK+/TK-), Metabolic Activation: NONE, Method: SUSPENSION/PLATE): inactive; negative
- mutagenic call (Test System: MOUSE LYMPHOMA, Strain/Indicator: L5178Y (TK+/TK-), Metabolic Activation: RAT, LIVER, S-9, AROCLOR 1254, Method: SUSPENSION/PLATE): active; positive
- mutagenic call (Test System: UDS RODENT HEPATOCYTES, Strain/Indicator: THY INCORP (NON-S-PHASE), Metabolic Activation: NONE, Method: AUTORADIOGRAPHY): inactive; negative

SMILES: ClC1C=Cc2cc3c4c(ccc5cccc(c54)C=3)c2=C1 (stereo not given)
- mutagenic call [4]: active; positive
